Test results published in paper PMC5218480 (PLoS ONE, 2017).

Tested on: MV-4-11 cells
Test: Gene expression microarray analysis (Affymetrix PrimeView) and GSEA
Format: cell-based, human
Parameters: RFU PODN (11730768_x_at) / Fold change /veh PODN (11730768_x_at) / RFU LINC00158 (11744669_a_at) / Fold change /veh LINC00158 (11744669_a_at) / RFU DUSP10 (11751237_a_at) / Fold change /veh DUSP10 (11751237_a_at) / RFU ID3 (11757404_x_at) / Fold change /veh ID3 (11757404_x_at) / RFU PLEKHG5 (11737974_s_at) / Fold change /veh PLEKHG5 (11737974_s_at) / RFU LRRC4B (11730491_at) / Fold change /veh LRRC4B (11730491_at) / RFU GIMAP4 (11747438_a_at) / Fold change /veh GIMAP4 (11747438_a_at) / RFU KRT8 (11758183_x_at) / Fold change /veh KRT8 (11758183_x_at) / RFU CNN1 (11734310_a_at) / Fold change /veh CNN1 (11734310_a_at) / RFU VPS37D (11726825_at) / Fold change /veh VPS37D (11726825_at) / RFU C10orf10 (11716522_x_at) / Fold change /veh C10orf10 (11716522_x_at) / RFU KIR2DL2 /// KIR2DL4 /// KIR2DL5A /// KIR2DL5B /// KIR2DS1 /// KIR2DS2 /// KIR2DS3 /// KIR2DS4 /// KIR3DL3 /// KIR3DL3 /// KIR3DS1 (11738374_at) / Fold change /veh KIR2DL2 /// KIR2DL4 /// KIR2DL5A /// KIR2DL5B /// KIR2DS1 /// KIR2DS2 /// KIR2DS3 /// KIR2DS4 /// KIR3DL3 /// KIR3DL3 /// KIR3DS1 (11738374_at) / RFU C1QL1 (11718748_at) / Fold change /veh C1QL1 (11718748_at) / RFU TMPRSS4 (11747572_a_at) / Fold change /veh TMPRSS4 (11747572_a_at) / RFU HAMP (11756126_x_at) / Fold change /veh HAMP (11756126_x_at) / RFU RNFT2 (11725882_a_at) / Fold change /veh RNFT2 (11725882_a_at) / RFU NR4A2 (11747474_a_at) / Fold change /veh NR4A2 (11747474_a_at) / RFU ABCC12 (11746883_a_at) / Fold change /veh ABCC12 (11746883_a_at) / RFU TMEM136 (11760407_x_at) / Fold change /veh TMEM136 (11760407_x_at) / RFU CLDN22 /// WWC2 (11732394_at) / Fold change /veh CLDN22 /// WWC2 (11732394_at) / RFU HLA-DPB1 (11760878_x_at) / Fold change /veh HLA-DPB1 (11760878_x_at) / RFU SPINT1 (11716480_a_at) / Fold change /veh SPINT1 (11716480_a_at) / RFU GAP43 (11754022_s_at) / Fold change /veh GAP43 (11754022_s_at) / RFU A4GNT (11735810_at) / Fold change /veh A4GNT (11735810_at) / RFU PRB3 (11715151_x_at) / Fold change /veh PRB3 (11715151_x_at) / RFU TUBB4B (11761932_at) / Fold change /veh TUBB4B (11761932_at) / RFU CAPN14 (11732068_a_at) / Fold change /veh CAPN14 (11732068_a_at) / RFU TMCC2 (11721928_a_at) / Fold change /veh TMCC2 (11721928_a_at) / RFU IRGQ (11745062_a_at) / Fold change /veh IRGQ (11745062_a_at) / RFU FAM174B (11720279_a_at) / Fold change /veh FAM174B (11720279_a_at) / RFU TMPRSS4 (11748680_a_at) / Fold change /veh TMPRSS4 (11748680_a_at) / RFU FAM212B (11763350_a_at) / Fold change /veh FAM212B (11763350_a_at) / RFU PLEKHG5 (11743358_a_at) / Fold change /veh PLEKHG5 (11743358_a_at) / RFU ZSCAN30 (11745921_a_at) / Fold change /veh ZSCAN30 (11745921_a_at) / RFU CMKLR1 (11741424_a_at) / Fold change /veh CMKLR1 (11741424_a_at) / RFU LOC101060620 /// MAPK8IP1 (11723275_at) / Fold change /veh LOC101060620 /// MAPK8IP1 (11723275_at) / RFU SPTSSB (11747773_x_at) / Fold change /veh SPTSSB (11747773_x_at) / RFU PRSS12 (11739890_at) / Fold change /veh PRSS12 (11739890_at) / RFU BIN1 (11741810_x_at) / Fold change /veh BIN1 (11741810_x_at) / RFU WNT11 (11732464_a_at) / Fold change /veh WNT11 (11732464_a_at) / RFU C10orf10 (11716521_a_at) / Fold change /veh C10orf10 (11716521_a_at) / RFU C5orf56 (11738089_at) / Fold change /veh C5orf56 (11738089_at) / RFU CYB561 (11721691_x_at) / Fold change /veh CYB561 (11721691_x_at) / RFU ANKRD19P (11752326_a_at) / Fold change /veh ANKRD19P (11752326_a_at) / RFU OR2T12 /// OR2T33 /// OR2T8 (11738714_s_at) / Fold change /veh OR2T12 /// OR2T33 /// OR2T8 (11738714_s_at) / RFU VCAN (11748164_a_at) / Fold change /veh VCAN (11748164_a_at) / RFU JSRP1 (11732532_at) / Fold change /veh JSRP1 (11732532_at) / RFU KRTAP10-11 (11738290_x_at) / Fold change /veh KRTAP10-11 (11738290_x_at) / RFU MYO3A (11730013_a_at) / Fold change /veh MYO3A (11730013_a_at) / RFU EBF3 (11725865_a_at) / Fold change /veh EBF3 (11725865_a_at) / RFU CAMK2N1 (11719241_x_at) / Fold change /veh CAMK2N1 (11719241_x_at) / RFU C5orf56 (11738088_a_at) / Fold change /veh C5orf56 (11738088_a_at) / RFU OLFML3 (11715873_a_at) / Fold change /veh OLFML3 (11715873_a_at) / RFU LOC100653217 /// NTM (11731650_a_at) / Fold change /veh LOC100653217 /// NTM (11731650_a_at) / RFU MAPK11 (11762145_a_at) / Fold change /veh MAPK11 (11762145_a_at) / RFU FIZ1 (11724087_x_at) / Fold change /veh FIZ1 (11724087_x_at) / RFU OASL (11726364_x_at) / Fold change /veh OASL (11726364_x_at) / RFU SOX15 (11748057_x_at) / Fold change /veh SOX15 (11748057_x_at) / RFU CD79A (11719716_a_at) / Fold change /veh CD79A (11719716_a_at) / RFU HIST1H1D (11736915_at) / Fold change /veh HIST1H1D (11736915_at) / RFU CASKIN2 (11723855_a_at) / Fold change /veh CASKIN2 (11723855_a_at) / RFU LOC730098 (11760151_x_at) / Fold change /veh LOC730098 (11760151_x_at) / RFU OR4N2 (11742367_at) / Fold change /veh OR4N2 (11742367_at) / RFU PRRT2 (11749266_a_at) / Fold change /veh PRRT2 (11749266_a_at) / RFU SNX32 (11753110_a_at) / Fold change /veh SNX32 (11753110_a_at) / RFU CDHR5 (11726645_a_at) / Fold change /veh CDHR5 (11726645_a_at) / RFU RCAN1 (11760418_a_at) / Fold change /veh RCAN1 (11760418_a_at) / RFU FAM167A (11723789_a_at) / Fold change /veh FAM167A (11723789_a_at) / RFU FAM26E (11764081_at) / Fold change /veh FAM26E (11764081_at) / RFU ISYNA1 (11749810_s_at) / Fold change /veh ISYNA1 (11749810_s_at) / RFU ACY1 (11761880_at) / Fold change /veh ACY1 (11761880_at) / RFU 11764098_at / Fold change /veh 11764098_at / RFU SAMD14 (11745864_x_at) / Fold change /veh SAMD14 (11745864_x_at) / RFU NPB (11741838_a_at) / Fold change /veh NPB (11741838_a_at) / RFU TMPRSS6 (11731388_a_at) / Fold change /veh TMPRSS6 (11731388_a_at) / RFU KRTAP10-2 (11738614_at) / Fold change /veh KRTAP10-2 (11738614_at) / RFU ARHGAP8 /// PRR5-ARHGAP8 (11727945_x_at) / Fold change /veh ARHGAP8 /// PRR5-ARHGAP8 (11727945_x_at) / RFU KRTAP5-7 /// NADSYN1 (11734609_at) / Fold change /veh KRTAP5-7 /// NADSYN1 (11734609_at) / RFU RASL12 (11751679_a_at) / Fold change /veh RASL12 (11751679_a_at) / RFU CDKN2B (11736163_a_at) / Fold change /veh CDKN2B (11736163_a_at) / RFU PRF1 (11729649_at) / Fold change /veh PRF1 (11729649_at) / RFU, ZNF638 /// ZNF638-IT1 / Fold change vs veh, ZNF638 /// ZNF638-IT1 / RFU, PANK3 / Fold change vs veh, PANK3 / RFU, SH3YL1 / Fold change vs veh, SH3YL1 / RFU, ZEB2 / Fold change vs veh, ZEB2 / RFU, NRIP1 / Fold change vs veh, NRIP1 / RFU, PTTG1IP / Fold change vs veh, PTTG1IP / RFU, CAPN2 / Fold change vs veh, CAPN2 / RFU, MED14 / Fold change vs veh, MED14 / RFU, SNORA58 / Fold change vs veh, SNORA58 / RFU, C1orf63 / Fold change vs veh, C1orf63 / RFU, LRRFIP1 / Fold change vs veh, LRRFIP1 / RFU, NDUFAF7 / Fold change vs veh, NDUFAF7 / RFU, SLC12A2 / Fold change vs veh, SLC12A2 / RFU, IBTK / Fold change vs veh, IBTK / RFU, ESF1 / Fold change vs veh, ESF1 / Fold change vs veh, TMEM50B / RFU, TAOK1 / Fold change vs veh, TAOK1 / RFU, ACBD3 / Fold change vs veh, ACBD3 / RFU, TMA16 / Fold change vs veh, TMA16 / RFU, RWDD3 / Fold change vs veh, RWDD3 / RFU, BCAT1 / Fold change vs veh, BCAT1 / RFU, EDEM3 / Fold change vs veh, EDEM3 / RFU, TMEM33 / Fold change vs veh, TMEM33 / RFU, WDR75 / Fold change vs veh, WDR75 / RFU, AHCTF1 / Fold change vs veh, AHCTF1 / RFU, TFRC / Fold change vs veh, TFRC / RFU, ZDHHC17 / Fold change vs veh, ZDHHC17 / RFU, NOM1 / Fold change vs veh, NOM1 / RFU, ARL8B / Fold change vs veh, ARL8B / RFU, ZBTB11 / Fold change vs veh, ZBTB11 / RFU, TAMM41 / Fold change vs veh, TAMM41 / RFU, KIAA1704 /// LOC100996395 / Fold change vs veh, KIAA1704 /// LOC100996395 / RFU, ING1 / Fold change vs veh, ING1 / RFU, TRMT61B / Fold change vs veh, TRMT61B / RFU, FUBP3 / Fold change vs veh, FUBP3 / RFU, TP53 / Fold change vs veh, TP53 / RFU, TNKS2 / Fold change vs veh, TNKS2 / RFU, ZFP14 / Fold change vs veh, ZFP14 / RFU, ACTR2 / Fold change vs veh, ACTR2 / RFU, PPP3R1 / Fold change vs veh, PPP3R1 / RFU, PIK3R1 / Fold change vs veh, PIK3R1 / RFU, HNRNPA1 / Fold change vs veh, HNRNPA1 / RFU, RNF170 / Fold change vs veh, RNF170 / RFU, ZNF28 / Fold change vs veh, ZNF28 / RFU, RNGTT / Fold change vs veh, RNGTT / RFU, OGT / Fold change vs veh, OGT / RFU, BRD1 / Fold change vs veh, BRD1 / RFU, MARS / Fold change vs veh, MARS / RFU, ZNF655 / Fold change vs veh, ZNF655 / RFU, FAHD1 / Fold change vs veh, FAHD1 / RFU, BDP1 / Fold change vs veh, BDP1 / RFU, LRRCC1 / Fold change vs veh, LRRCC1 / RFU, ARID1A / Fold change vs veh, ARID1A / RFU, ZNF146 / Fold change vs veh, ZNF146 / RFU, ZNF330 / Fold change vs veh, ZNF330 / RFU, GPN3 / Fold change vs veh, GPN3 / RFU, C9orf123 / Fold change vs veh, C9orf123 / RFU, N4BP2L2 / Fold change vs veh, N4BP2L2 / RFU, ARFIP1 / Fold change vs veh, ARFIP1 / RFU, FAM179B / Fold change vs veh, FAM179B / RFU, BCL10 / Fold change vs veh, BCL10 / RFU, UHRF1BP1L / Fold change vs veh, UHRF1BP1L / RFU, BET1 / Fold change vs veh, BET1 / RFU, CNOT2 / Fold change vs veh, CNOT2 / RFU, ZNF268 / Fold change vs veh, ZNF268 / Fold change vs veh, ZNF507 / RFU, DGCR2 / Fold change vs veh, DGCR2 / RFU, WDSUB1 / Fold change vs veh, WDSUB1 / Fold change vs veh, HSP90B1 /// MIR3652 / RFU, ADSS / Fold change vs veh, ADSS / RFU, GK / Fold change vs veh, GK / RFU, ZNF148 / Fold change vs veh, ZNF148 / RFU, TAF9 / Fold change vs veh, TAF9 / RFU, SLC1A5 / Fold change vs veh, SLC1A5 / RFU, SLMO2 / Fold change vs veh, SLMO2 / RFU, ABCC4 / Fold change vs veh, ABCC4 / RFU, LOC101060439 /// RAP1B / Fold change vs veh, LOC101060439 /// RAP1B / RFU, RFX7 / Fold change vs veh, RFX7 / RFU, GTPBP10 / Fold change vs veh, GTPBP10 / RFU, CNEP1R1 / Fold change vs veh, CNEP1R1 / RFU, BIVM-ERCC5 /// ERCC5 / Fold change vs veh, BIVM-ERCC5 /// ERCC5 / RFU, ILF3 / Fold change vs veh, ILF3 / RFU 11762660_at / Fold change /veh 11762660_at / RFU VCAN (11757783_s_at) / Fold change /veh VCAN (11757783_s_at) / RFU DDX43 (11728927_at) / Fold change /veh DDX43 (11728927_at) / RFU KRT8 (11758188_x_at) / Fold change /veh KRT8 (11758188_x_at) / RFU NKD1 (11759106_at) / Fold change /veh NKD1 (11759106_at) / RFU SRD5A1 (11742802_a_at) / Fold change /veh SRD5A1 (11742802_a_at) / RFU TPSAB1 /// TPSB2 (11721975_s_at) / Fold change /veh TPSAB1 /// TPSB2 (11721975_s_at) / RFU GSTM3 (11746129_a_at) / Fold change /veh GSTM3 (11746129_a_at) / RFU IL23R (11737362_x_at) / Fold change /veh IL23R (11737362_x_at) / RFU TMEM51 (11727254_a_at) / Fold change /veh TMEM51 (11727254_a_at) / RFU PIWIL2 (11732686_x_at) / Fold change /veh PIWIL2 (11732686_x_at) / RFU ORM1 (11744905_x_at) / Fold change /veh ORM1 (11744905_x_at) / RFU CCDC152 (11743942_at) / Fold change /veh CCDC152 (11743942_at) / RFU ECM1 (11717891_a_at) / Fold change /veh ECM1 (11717891_a_at) / RFU IL23R (11748794_a_at) / Fold change /veh IL23R (11748794_a_at) / RFU TNFAIP8L3 (11732012_x_at) / Fold change /veh TNFAIP8L3 (11732012_x_at) / RFU MBOAT4 (11741988_at) / Fold change /veh MBOAT4 (11741988_at) / RFU 11764193_at / Fold change /veh 11764193_at / RFU TMEM53 (11763286_at) / Fold change /veh TMEM53 (11763286_at) / RFU MAGEB2 (11727129_at) / Fold change /veh MAGEB2 (11727129_at) / RFU TMEM200A (11744735_a_at) / Fold change /veh TMEM200A (11744735_a_at) / RFU CCDC152 (11751479_a_at) / Fold change /veh CCDC152 (11751479_a_at) / RFU FAM211A (11726209_a_at) / Fold change /veh FAM211A (11726209_a_at) / RFU RGS16 (11746705_a_at) / Fold change /veh RGS16 (11746705_a_at) / RFU VCAN (11755009_s_at) / Fold change /veh VCAN (11755009_s_at) / RFU RHOB (11743442_s_at) / Fold change /veh RHOB (11743442_s_at) / RFU RGS16 (11720943_a_at) / Fold change /veh RGS16 (11720943_a_at) / RFU RGS16 (11720944_at) / Fold change /veh RGS16 (11720944_at) / RFU, VPS4B / Fold change vs veh, VPS4B / RFU, CREB1 / Fold change vs veh, CREB1 / RFU, DNAJC13 / Fold change vs veh, DNAJC13 / RFU, GNAQ / Fold change vs veh, GNAQ / RFU, CDK5R1 / Fold change vs veh, CDK5R1 / RFU, ZRANB3 / Fold change vs veh, ZRANB3 / RFU, CUL4A / Fold change vs veh, CUL4A / RFU, CCNY / Fold change vs veh, CCNY / RFU, UFL1 / Fold change vs veh, UFL1 / RFU, COG3 / Fold change vs veh, COG3 / RFU, DIAPH2 / Fold change vs veh, DIAPH2 / RFU, SKA2 / Fold change vs veh, SKA2 / RFU, AFF3 / Fold change vs veh, AFF3 / RFU, LMF1 / Fold change vs veh, LMF1 / RFU, IPO11 / Fold change vs veh, IPO11 / RFU, DFFB / Fold change vs veh, DFFB / RFU, FOXP1 / Fold change vs veh, FOXP1 / RFU, CARD8 / Fold change vs veh, CARD8 / RFU, STRN3 / Fold change vs veh, STRN3 / RFU, ADK / Fold change vs veh, ADK / RFU, RASSF2 / Fold change vs veh, RASSF2 / RFU, WIPF1 / Fold change vs veh, WIPF1 / RFU, LARP1B / Fold change vs veh, LARP1B / RFU, RASA1 / Fold change vs veh, RASA1 / RFU, RB1 / Fold change vs veh, RB1 / RFU, PPFIA1 / Fold change vs veh, PPFIA1 / RFU, MAT2A / Fold change vs veh, MAT2A / RFU, CCT5 / Fold change vs veh, CCT5 / RFU, WDR92 / Fold change vs veh, WDR92 / RFU, CUX1 / Fold change vs veh, CUX1 / RFU, TTC7A / Fold change vs veh, TTC7A / RFU, TMEM135 / Fold change vs veh, TMEM135 / RFU, DEPTOR / Fold change vs veh, DEPTOR / RFU, CPM / Fold change vs veh, CPM / RFU, DNAJB6 / Fold change vs veh, DNAJB6 / RFU, CACNA2D3 / Fold change vs veh, CACNA2D3 / RFU, DTX4 / Fold change vs veh, DTX4 / RFU, TFCP2 / Fold change vs veh, TFCP2 / RFU, GMCL1 /// GMCL1P1 / Fold change vs veh, GMCL1 /// GMCL1P1 / RFU, AEBP2 / Fold change vs veh, AEBP2 / RFU, SNHG1 /// SNORD22 /// SNORD25 /// SNORD26 /// SNORD27 /// SNORD28 /// SNORD29 /// SNORD31 / Fold change vs veh, SNHG1 /// SNORD22 /// SNORD25 /// SNORD26 /// SNORD27 /// SNORD28 /// SNORD29 /// SNORD31 / Fold change (Aza/veh), C12orf56 (ProbeSet 11735607_a_at) / Fold change (ACY-1035/veh), C12orf56 (ProbeSet 11735607_a_at) / Fold change (Aza/veh), FGFR1OP (ProbeSet 11751329_s_at) / Fold change (ACY-1035/veh), FGFR1OP (ProbeSet 11751329_s_at) / Fold change (Aza/veh), VPS36 (ProbeSet 11739960_a_at) / Fold change (ACY-1035/veh), VPS36 (ProbeSet 11739960_a_at) / RFU SYPL1 (11715823_x_at) / Fold change /veh SYPL1 (11715823_x_at) / RFU IGFBP7 (11715501_s_at) / Fold change /veh IGFBP7 (11715501_s_at) / RFU REEP3 (11722064_at) / Fold change /veh REEP3 (11722064_at) / RFU IGLL1 (11728026_x_at) / Fold change /veh IGLL1 (11728026_x_at): dose or concentration left out as unconfirmed
Details: ProbeSet 11716891_at; LIST B

In the case of `Nc1ncn([C@@H]2O[C@H](CO)[C@@H](O)[C@H]2O)c(=O)n1` [azacitidine], the “RFU, C9orf123” value was 42.83 RFU.
